Bounds are passed on as bounds.

The target in one assay is T1, GST-rat CK1δ (Rattus norvegicus, UniProt Q06486).
T1 construct: made in house; host or cells: bacteria (pGEX-2T)
The experiment in a line: In vitro kinase assay, GST-rat CK1δ. The format is biochemical. To be noted: for GST-wt CK1δ activity in the presence of inhibitor: inhibitor at its determined IC50 concentration (Fig. 7).

For the next assay, the target named is T2, GST-rat CK1δ^M82F (Rattus norvegicus, UniProt Q06486, M82F).
T2 construct: made in house; host or cells: bacteria (pGEX-2T)
T2 sequence (Q06486 1-415 M82F): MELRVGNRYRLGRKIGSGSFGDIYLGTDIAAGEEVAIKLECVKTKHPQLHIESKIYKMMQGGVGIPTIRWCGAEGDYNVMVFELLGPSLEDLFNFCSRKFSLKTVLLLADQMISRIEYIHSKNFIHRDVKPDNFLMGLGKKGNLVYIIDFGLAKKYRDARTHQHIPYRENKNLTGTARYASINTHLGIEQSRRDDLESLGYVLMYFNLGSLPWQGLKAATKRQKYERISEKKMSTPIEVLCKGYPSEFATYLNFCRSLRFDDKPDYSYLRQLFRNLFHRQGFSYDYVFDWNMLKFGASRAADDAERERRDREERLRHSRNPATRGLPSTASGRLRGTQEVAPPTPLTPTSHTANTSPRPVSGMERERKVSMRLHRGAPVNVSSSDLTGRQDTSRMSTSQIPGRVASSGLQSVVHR
The experiment in a line: In vitro kinase assay, gatekeeper mutant. The assay is classed as biochemical. To be noted: inhibitor at its determined IC50 concentration (Fig. 7). How it is done: For the expression of wt rat CK1δ and rat CK1δ^M82F as glutathione S-transferase fusion proteins the plasmids pGEX-2T-CK1δ (FP449) (Knippschild et al. [1997]) and pGEX-2T-CK1δ^M82F (FP1153) (Peifer et al. [2009]) were used.
Expression and purification of the GST-fusion proteins GST-mouse p53^1–64 (FP267), GST-rat CK1δ (FP449), GST-rat CK1δ^M82F (FP1153), GST-mouse CK1δTV1 (FP1170), and GST-mouse CK1δTV2 (FP1171) was carried out as described elsewhere (Wolff et al. [2005]). Expression of fusion proteins FP1170 and 1171 was either performed at 37°C for 2 h, or at 15°C for 14 h. FP449 and FP1153 were always expressed at 15°C for 14 h.
In vitro kinase assays were carried out in the presence of various potential inhibitors of CK1δ at an ATP concentration of 0.01 mM and dimethyl sulfoxide (DMSO) solvent control as described previously (Knippschild et al. [1996]). Where indicated higher ATP concentrations (0.05, 0.1, 0.25 and 0.5 mM) were used. The fusion protein GST-mouse p53^1−64 (FP267) was used as substrate. Recombinant CK1δ kinase domain (CK1δkd, NEB, Frankfurt am Main, Germany), GST-rat CK1δ (FP449), GST-rat CK1δ^M82F (FP1153), GST-mouse CK1δTV1, GST-mouse CK1δTV2 and recombinant human CK1ε (Invitrogen, Karlsruhe, Germany) were used as sources of enzyme. Phosphorylated proteins were separated by SDS-PAGE and the protein bands were visualized on dried gels by autoradiography. The phosphorylated protein bands were excised and quantified by Cherenkov counting.
Previously it has been shown that methionine 82 plays an important role as gatekeeper residue in the docking mode of isoxazoles to the ATP binding pocket since mutation of methionine 82 to phenylalanine blocks binding of this class of CK1δ specific inhibitors (Peifer et al. [2009]) while still binding ATP. Therefore, we now analyzed the effects of exchanging methionine 82 to phenylalanine on the ability of compounds 4, 5 and 6 to inhibit CK1δ activity.

Another assay deals with mKSA cells. The experiment in a line: Flow cytometry cell cycle analysis. The format is cell-based, mouse. To be noted: 2 and 4 μM, 48 h, range stated jointly for Frwt648 and mKSA and compounds 5 and 6. How it is done:
(§1) Frwt648 cells [generated by SV40-transformation of F111 cells; (Hinzpeter and Deppert [1987])] and mKSA cells [SV40-transformed Balb/c fibroblasts; (Kit et al. [1969])] were grown in Dulbecco’s modified Eagle’s medium (DMEM) supplemented with 5% fetal calf serum (FCS; Biochrom, Berlin, Germany). The fibrosarcoma cell line HT1080 (Rasheed et al. [1974]) was grown in DMEM containing 10% FCS and 2 mM glutamine while both the prostate cancer cell line DU-145 (Stone et al. [1978]) and the ovary tissue cancer cell line OVCAR-3 (Hamilton et al. [1983]) were maintained in RPMI-1640 supplemented with 10% FCS. The pancreatic cancer cell line Colo357 (Morgan et al. [1980]) was grown in DMEM/RPMI (1:1) and the colon adenocarcinoma cell line SW480 (Leibovitz et al. [1976]) in Leibovitz L-15 medium, both containing 10% FCS and 2 mM glutamine. All media were supplemented with 100 U/ml penicillin and 100 μg/ml streptomycin (Gibco, Karlsruhe, Germany) and all cell lines were grown at 37°C in a humidified 5% carbon dioxide atmosphere.
Subconfluent Frwt648, mKSA, Colo357, OVCAR-3, HT1080, DU-145 and SW480 cells were treated with 2 or 4 μM of compounds 5 or 6 for 48 h. Untreated and DMSO treated cells served as control. Cells were harvested, washed once with phosphate-buffered saline (PBS), and prepared for cell cycle analysis using the “Cycle Test Plus Kit” (BD, San Jose, USA). […]
(A flow cytometer gives signals particle by particle.)

The test system of another assay is Colo357 cells. The experiment in a line: Flow cytometry cell cycle analysis. The assay is classed as cell-based, human. To be noted: Colo357, 2 or 4 μM, 48 h. Here is the method: as §1
(§2) Subconfluent Frwt648, mKSA, Colo357, OVCAR-3, HT1080, DU-145 and SW480 cells were treated with 2 or 4 μM of compounds 5 or 6 for 48 h. Untreated and DMSO treated cells served as control. Cells were harvested, washed once with phosphate-buffered saline (PBS), and prepared for cell cycle analysis using the “Cycle Test Plus Kit” (BD, San Jose, USA). Cell cycle profiles were obtained using a FACScan flow cytometer and CellQuest software (BD Biosciences, San Jose, USA).

The subject of another assay is DU-145 cells. The experiment in a line: Flow cytometry cell cycle analysis. Particulars: 48 h (data not shown); for dead cells: DU-145, 2 or 4 μM. The format is cell-based, human. Here is the method: as §1, §2
The subject of a further assay is HT1080 cells. Briefly: Flow cytometry cell cycle analysis. The format is cell-based, human. Particulars: HT1080, 2 or 4 μM, 48 h (data not shown). How it is done: as §1, §2
A further assay has as its system OVCAR-3 cells. Briefly: Flow cytometry cell cycle analysis. The assay is classed as cell-based, human. To be noted: 48 h. Here is the method: as §1, §2
The next assay relates to SW480 cells. The experiment in a line: Flow cytometry cell cycle analysis. The assay is classed as cell-based, human. To be noted: SW480, 2 or 4 μM, 48 h (data not shown). How it is done: as §1, §2

T1 sequence (Q06486 whole entry): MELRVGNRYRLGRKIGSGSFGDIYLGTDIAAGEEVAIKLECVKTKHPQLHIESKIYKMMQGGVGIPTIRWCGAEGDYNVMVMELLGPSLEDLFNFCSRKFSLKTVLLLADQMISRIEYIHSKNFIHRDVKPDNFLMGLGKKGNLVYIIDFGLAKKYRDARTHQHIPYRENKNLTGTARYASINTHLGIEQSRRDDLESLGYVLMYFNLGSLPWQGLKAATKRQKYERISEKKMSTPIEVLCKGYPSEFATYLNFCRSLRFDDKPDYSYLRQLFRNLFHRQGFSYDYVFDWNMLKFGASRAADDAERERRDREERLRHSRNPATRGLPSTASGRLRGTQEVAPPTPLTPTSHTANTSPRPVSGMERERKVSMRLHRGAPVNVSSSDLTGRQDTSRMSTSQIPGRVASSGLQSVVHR

A word on the IC50: it is the concentration needed to halve the response being measured. The low end stands for higher potency, the high end for lower potency. Regarding `O=C(Nc1nc2cc(Cl)c(F)cc2[nH]1)c1csc(NC(=O)c2ccccc2OC(F)(F)F)n1` [Compound 6, N-(5-Chloro-6-fluoro-1H-benzo[d]imidazol-2-yl)-2-(2-(trifluoromethoxy)benzamido)thiazole-4-carboxamide], on GST-rat CK1δ (0.01 mM ATP, substrate GST-mouse p53^1-64, mean ± SD), half-maximal inhibition (IC50) was put at 0.042 ± 0.05 µM. Further, the “GST-wt CK1δ activity in the presence of inhibitor” value on GST-rat CK1δ is listed as “clearly decreased”. In addition, on GST-rat CK1δ^M82F, the “kinase activity of GST-CK1δ^M82F in comparison with inhibition of GST-wt CK1δ” value is “similarly or even less affected”. The dead cells in the assay with mKSA cells is 35–98%; in the assay with DU-145 cells it was not above 20%; in the assay with HT1080 cells it was not above 20%; in the assay on SW480 cells, not above 20%. Besides, the “effect on cell cycle distribution” value with Colo357 cells was “more cells appeared to be in the G1 phase”. In the assay on OVCAR-3 cells (OVCAR-3, 4 μM), the “cells died upon treatment” value amounted to 39%.
`O=C(Nc1nc2ccc(C(F)(F)F)cc2[nH]1)c1csc(NC(=O)c2ccccc2OC(F)(F)F)n1` [Compound 5, 2-(2-(Trifluoromethoxy)benzamido)-N-(6-(trifluoromethyl)-1H-benzo[d]imidazol-2-yl)thiazole-4-carboxamide]: the “GST-wt CK1δ activity in the presence of inhibitor” value at GST-rat CK1δ was “clearly decreased”. Also, the “higher affinity towards CK1δ than to CK1ε” value at GST-rat CK1δ (ratio of IC50 values CK1ε / CK1δ) is “fivefold”. The “kinase activity of GST-CK1δ^M82F in comparison with inhibition of GST-wt CK1δ” value at GST-rat CK1δ^M82F was “much more affected”. Also, the dead cells in the assay with mKSA cells is listed as 35–98%; in the assay with DU-145 cells, not above 20%; in the assay with HT1080 cells it was not above 20%; in the assay on SW480 cells, not above 20%. For the same molecule, the “effect on cell cycle distribution” value in the assay on Colo357 cells is listed as “more cells appeared to be in the G1 phase”; in the assay on OVCAR-3 cells (OVCAR-3, 2 or 4 μM) it was “slight increase of cells in the G2 phase”. In addition, the “susceptibility of DU-145 to treatment” value in the assay on DU-145 cells (2 or 4 μM) was “unsusceptible”.

For the origin of these results see publication PMC3448056, “2-Benzamido-N-(1H-benzo[d]imidazol-2-yl)thiazole-4-carboxamide derivatives as potent inhibitors of CK1δ/ε” (Amino Acids, 2012).
